Data: a melting point compilation (Tetko et al.; mined from patent text by program, amines drawn as free bases though some values may be those of a salt)

Question: Which melting point does the source give for `Cc1ccccc1C(C(=O)N[C@H]1CCN(CCc2ccc(F)cc2)C1)c1ccccc1C` here?
Answer: Its melting point is 108 to 110 °C.

Question: With `CCCCC(Cn1cnc([N+](=O)[O-])c1)c1ccc(Cl)cc1Cl` (stereo not given) as the molecule, how does the melting point read?
Answer: The melting point was 67 to 69 °C.

Question: With `CC(=O)Nc1c(C(=O)c2ccccc2)[nH]c2ccc(Br)cc12` as the molecule, how does the melting point read?
Answer: Its melting point is 192 to 194 °C.

Question: Which melting point does the source give for `CCN1c2ncc(COc3ccc(C(=O)OC)cc3)cc2C(=O)N(C)c2ccc(Cl)nc21` here?
Answer: Its melting point is 196 to 197 °C.

Question: With `Cc1cc(OCCN)ccc1NC(=O)c1ccc(N2CCNCC2)cc1` as the molecule, how does the melting point read?
Answer: The melting point was over 250 °C.

Question: For `CNC(=O)N(C)C(=O)Nc1ccccc1`, which melting point is on record?
Answer: The melting point was 93 to 95 °C.

Question: Which melting point does the source give for `COc1ccc(C2CCOCC2)cc1NC(=S)c1ncc[nH]1` here?
Answer: The melting point was 189 to 190 °C.

Question: Which melting point does the source give for `N#Cc1ccc(-c2ncc(C(F)(F)F)cc2Cl)cc1OCC(=O)C1CC1` here?
Answer: Its melting point is 115 to 116 °C.

Question: With `CC=Cc1c(C(C)C)nc(C(C)C)c(CO)c1-c1ccc(F)cc1` as the molecule, how does the melting point read?
Answer: The melting point was 46 to 47 °C.

Question: For `NC(=O)c1c(C(=O)O)cnn1-c1cccc(Cl)c1Cl`, which melting point is on record?
Answer: Its melting point is 228 to 230 °C.

Question: For `Cc1nn(CCNS(C)(=O)=O)c(-c2ccc(F)cc2)c1-c1ccc2c(c1)NC(=O)CO2`, which melting point is on record?
Answer: The melting point was 220 to 221 °C.

Question: For `CCCCCCOc1c(Br)ccc2c(OCCCCCC)c(Br)ccc12`, which melting point is on record?
Answer: Its melting point is 41 to 43 °C.

Question: With `CCc1cnc2c(NC(=O)c3c(Cl)cccc3Cl)cccc2c1/C=C/C(=O)O` as the molecule, how does the melting point read?
Answer: Its melting point is 235 to 236 °C.

Question: For `Cc1cc(-c2cc(CN3CCN(C)CC3)c(=O)n(Cc3ccccc3Cl)n2)ccc1F`, which melting point is on record?
Answer: Its melting point is 150 to 151 °C.

Question: Which melting point does the source give for `CC1(C)c2ccccc2C(C)(C)C1(S)CC(=O)O` here?
Answer: The melting point was 159 to 161 °C.

Question: Which melting point does the source give for `O=C1C2CSCC1CN(Cc1ccccc1)C2` here?
Answer: Its melting point is 91 to 92 °C.

Question: Which melting point does the source give for `CCc1cccc(NC(=O)c2nnn[nH]2)c1O` here?
Answer: The melting point was 185 to 187 °C.

Question: Which melting point does the source give for `Nc1ccc(C(=O)CCCN2CCC(OC(=O)c3cc(Cl)c(N)c4c3OCC4)CC2)cc1N` here?
Answer: The melting point was 173 °C.

Question: With `Brc1ccccc1Sc1nc2ccccc2n2cncc12` as the molecule, how does the melting point read?
Answer: The melting point was 191 to 192 °C.

Question: Which melting point does the source give for `O=C1C(CCO)Oc2ccccc2N1Cc1cccc(Cl)c1` (stereo not given) here?
Answer: The melting point was 63 to 67 °C.

Question: For `Cc1ccc(S(=O)(=O)NC(C)(C)CO)cc1NC(=O)c1cnn2c(C(F)(F)F)cc(-c3ccc(C(F)(F)F)cc3)nc12`, which melting point is on record?
Answer: Its melting point is 240 °C.

Question: With `CC(=O)Nc1nc(NC(C)CCc2ccccc2)nc(C(C)(C)F)n1` (stereo not given) as the molecule, how does the melting point read?
Answer: The melting point was 91 °C.

Question: For `O=S(=O)(C=Cc1ccc(F)cc1)Oc1ccccc1`, which melting point is on record?
Answer: The melting point was 108 °C.

Question: Which melting point does the source give for `CC1(C)CC(O)CC(C)(C)N1CC#CCN1C(C)(C)CC(O)CC1(C)C` here?
Answer: The melting point was 203 °C.

Question: Which melting point does the source give for `COc1cc2c(c(OC)c1OC)CC(CCCCCCC1Cc3cc(OC)c(OC)c(OC)c3C1)C2` (stereo not given) here?
Answer: The melting point was 69 to 70 °C.

Question: Which melting point does the source give for `COc1cc(C(C)C)c(OCC#N)cc1I` here?
Answer: The melting point was 67.5 to 68.8 °C.

Question: For `CC(=O)NC[C@H]1CN(c2ccc(C(=O)c3cnc4ccc(Cl)cn34)cc2)C(=O)O1`, which melting point is on record?
Answer: Its melting point is 234 to 235 °C.

Question: With `O=C(O)C1(Cn2cnnn2)CCCC1` as the molecule, how does the melting point read?
Answer: Its melting point is 192 to 196 °C.

Question: With `Cc1cc(C)c(N(C)C(=O)CN2C(=O)c3ccccc3C2=O)c(C)c1CO` as the molecule, how does the melting point read?
Answer: The melting point was 254 to 256 °C.

Question: For `CC(=O)c1cccc(S(=O)(=O)NCc2ccccc2-c2ccccc2C(=O)NCc2ccccc2)c1`, which melting point is on record?
Answer: Its melting point is 182 °C.

Question: Which melting point does the source give for `Cn1c(=O)sc2cc(N3C[C@H](CN)OC3=O)ccc21` here?
Answer: The melting point was 217 °C.

Question: With `COC1=C(OC)C(=O)C2=C(CC(CCCCCCCCN3C(=O)c4ccccc4C3=O)C2)C1=O` as the molecule, how does the melting point read?
Answer: Its melting point is 91 to 93 °C.

Question: For `CCOC(=O)C1=CC(=NO)CC(c2ccc(Cl)cc2F)N1` (stereo not given), which melting point is on record?
Answer: The melting point was 124 to 126 °C.

Question: Which melting point does the source give for `CC(C)C[C@H](O)[C@H](O)[C@@H](N)CC1CCCCC1` here?
Answer: The melting point was 110 to 111 °C.

Question: With `CNC(=S)NS(=O)(=O)c1cc2c(cc1C)OCC(NC(=O)c1cc(Cl)ccc1OC)C2` (stereo not given) as the molecule, how does the melting point read?
Answer: Its melting point is 207 to 208 °C.

Question: With `CC1(OC(=O)c2ccco2)C=CC(COC(=O)c2ccco2)=CN1` (stereo not given) as the molecule, how does the melting point read?
Answer: The melting point was 118 to 119 °C.

Question: With `OCc1cc2ccnc(Cl)c2[nH]1` as the molecule, how does the melting point read?
Answer: The melting point was 185 to 187 °C.

Question: Which melting point does the source give for `c1cncc(-c2c[nH]cn2)c1` here?
Answer: The melting point was 117 to 118 °C.

Question: Which melting point does the source give for `O=C(NCCCO)OCc1ccccc1` here?
Answer: The melting point was 47 to 49 °C.

Question: With `CC1(C)C=C(C(O)CN)c2ccccc21` (stereo not given) as the molecule, how does the melting point read?
Answer: The melting point was 93 °C.

Question: Which melting point does the source give for `COc1ccc(C(C#N)SC2CCCCC2)cc1OC` (stereo not given) here?
Answer: The melting point was 80 to 82 °C.

Question: With `O=c1[nH]c2ccc(S(=O)(=O)N(CCO)CCO)cc2[nH]c1=O` as the molecule, how does the melting point read?
Answer: Its melting point is 272 to 276 °C.

Question: For `Cc1ccc(S(=O)(=O)N=NCNC[C@@H]2C[C@H](C(=O)O)N(C(=O)OC(C)(C)C)C2)cc1`, which melting point is on record?
Answer: Its melting point is 132 to 133 °C.

Question: Which melting point does the source give for `Cc1cc(N)c(C)c(C(=O)O)c1` here?
Answer: Its melting point is 146 °C.

Question: With `Cc1c(Br)c2cnnc(OCc3ccc(F)cc3)c2n1Cc1ccccc1` as the molecule, how does the melting point read?
Answer: The melting point was 128 to 130 °C.

Question: For `NCc1ccc(N2CCN(c3ccc(OCC(=O)O)cc3)C2=O)cc1`, which melting point is on record?
Answer: Its melting point is over 250 °C.

Question: Which melting point does the source give for `C[C@H](Nc1nc(Cl)nc(Cl)n1)c1ccccc1` here?
Answer: Its melting point is 146 to 147 °C.

Question: With `O=C(N=C1SCCN1Cc1ccc(Cl)nc1)C(F)(F)F` as the molecule, how does the melting point read?
Answer: The melting point was 96 °C.

Question: For `Cc1cc(C)c(C2CN(c3cc4[nH]cc(C(=O)O)c(=O)c4cc3F)CCN2)o1` (stereo not given), which melting point is on record?
Answer: The melting point was 230 to 232 °C.

Question: Which melting point does the source give for `COc1ccc(OC)c(C=CC(=O)C=Cc2cc(OC)ccc2OC)c1` here?
Answer: Its melting point is 103 to 104 °C.
